Earlier results in patent US9445901B2, “Prosthesis with sustained release analgesic” (priority 2003, dated 2016).
Where a name gives a salt, the structure may show the parent alone.

Conditions: man, after injection for caudal, epidural or peripheral nerve block

CCCCN1CCCCC1C(=O)Nc1c(C)cccc1C (centres unmarked) [Marcaine, bupivacaine hydrochloride]
decline of blood levels after the peak: decline to insignificant levels during the next three to six hours | time to peak levels of bupivacaine in the blood: 30 to 45 min
